Experimental data published in patent US9765075B2, “Substituted bridged urea analogs as sirtuin modulators” (GLAXOSMITHKLINE LLC, priority 2013, dated 2017).
Like-named read-outs stand apart in the source and are kept apart here.

Key:
mini-hSIRT1 = assay: Inhibition of mini-hSIRT1 constructs compared with the full-length enzyme; assay type: biochemical, human
Procedure: Final concentrations of the PNC1/GDH coupling system components used were 20 units/mL bovine GDH (Sigma-Aldrich), 1 uM yeast PNC1, 3.4 mM α-ketoglutarate, and 220 μM NADH or NADPH. An extinction coefficient of 6.22 mM^−1 cm^−1 and a pathlength of 0.81 cm was used to convert the absorbance at 340 nm to product concentration for the 150 uL reactions used. […] Quenched reactions were diluted 5-fold with 1:1 acetonitrile:methanol and spun at 5,000×g for 10 minutes to precipitate protein before being analyzed with an Agilent RapidFire 200 High-Throughput Mass Spectrometry System (Agilent, Wakefield, Mass.) coupled to an ABSciex API 4000 mass spectrometer fitted with an electrospray ionization source. The p53-based Ac-p53(W5) (Ac-RHKK^AcW-NH2) and FOXO-3a 21-mer (Ac-[…]^Ac[…]-NH2) peptides were obtained from Biopeptide, Inc. Deacetylation assays used the Ac-p53(W5) substrate unless otherwise noted.
Substrate KM determinations were performed by varying one substrate concentration at a fixed, saturating concentration of the second substrate. SIRT1 activation and inhibition assays were run in reaction buffer with 0.05% BSA at 25° C. and analyzed using the OAcADPr assay. Enzyme and compound were pre-incubated for 20 minutes before addition of substrates. […]

SIRT1 = molecular target: T1, SIRT1 (Homo sapiens, UniProt Q96EB6); assay: Trp mass spectrometry assay (SIRT1 activation); assay type: biochemical; conditions: for Emax: percent maximum fold activation of SIRT1, read-out: Tryp % Fold Act
T1 sequence (Q96EB6 1-747): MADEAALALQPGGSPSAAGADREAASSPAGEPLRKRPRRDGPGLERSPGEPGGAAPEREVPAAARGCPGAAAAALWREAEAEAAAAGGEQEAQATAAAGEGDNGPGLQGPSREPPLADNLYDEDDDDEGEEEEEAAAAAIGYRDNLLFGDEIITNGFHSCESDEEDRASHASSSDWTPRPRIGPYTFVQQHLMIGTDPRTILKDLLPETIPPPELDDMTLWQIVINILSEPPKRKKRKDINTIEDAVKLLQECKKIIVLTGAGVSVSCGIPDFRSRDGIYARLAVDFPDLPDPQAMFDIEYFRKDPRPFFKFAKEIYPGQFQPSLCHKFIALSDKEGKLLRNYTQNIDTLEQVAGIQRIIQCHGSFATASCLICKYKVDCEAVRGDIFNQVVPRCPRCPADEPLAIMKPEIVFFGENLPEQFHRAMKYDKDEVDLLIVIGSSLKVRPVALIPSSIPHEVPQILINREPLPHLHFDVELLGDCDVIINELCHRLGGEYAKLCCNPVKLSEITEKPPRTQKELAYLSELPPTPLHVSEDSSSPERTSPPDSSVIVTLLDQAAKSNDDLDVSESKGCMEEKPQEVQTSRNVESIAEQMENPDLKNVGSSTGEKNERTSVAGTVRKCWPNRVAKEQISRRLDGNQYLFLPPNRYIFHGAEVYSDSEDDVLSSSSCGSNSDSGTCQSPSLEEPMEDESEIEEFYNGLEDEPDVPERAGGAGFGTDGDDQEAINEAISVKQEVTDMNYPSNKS
Summary of the method: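 N-His-tagged SIRT1 (10 nM), expressed in E. coli, was incubated with 0.5 μM Ac-RHKK(Ac)W-NH2 peptide and 120 μM NAD+ for 25 min at 25 °C in HEPES pH 7.5 with […]. The reaction was stopped with formic acid and O-acetyl-ADP-ribose or deacetylated peptide was quantified by mass spectrometry. Results are given as EC1.5 and percent maximal activation relative to DMSO control.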

[1] = concentration of test compound that results in 150% activation of SIRT1, Trp peptide substrate
[2] = Trp mass spectrometry assay, EC1.5 = concentration of test compound that results in 150% activation of SIRT1

SMILES | Tryp AVG EC1.5 (μM) (SIRT1; [1]) | Emax (SIRT1; Trp peptide substrate) | Emax (SIRT1; Trp mass spectrometry assay) | other results
NC(=O)c1cccnc1 [NAM, nicotinamide] |  |  |  | IC50 values, mini-hSIRT1 constructs versus full-length enzyme (mini-hSIRT1): comparable
N#Cc1cc(-c2ccc3c(n2)N(C(=O)Nc2ccccn2)[C@H]2CCN3C2)ccc1F [Example 341] | A (EC1.5<1 μM) | ≥ 150% |  | 
O=C(Nc1cccc(-c2cnco2)c1)N1c2nc(-c3cccc(N4CCCC4)c3)ccc2N2CC[C@H]1C2 [Example 191] |  |  | ≥ 150% | Tryp AVG EC1.5 (μM) (SIRT1; [2]): A (EC1.5<1 μM)
O=C(Nc1ccncn1)N1c2nc(-c3cccc(N4CCOCC4)c3)ccc2N2CCC[C@H]1C2 [Example 529] | B (EC1.5 1-25 μM) | ≥ 150% |  | 
CS(=O)(=O)c1cncc(-c2ccc3c(n2)N(C(=O)Nc2cccnc2)[C@H]2CCCN3C2)c1 [Example 376] | A (EC1.5<1 μM) | ≥ 150% |  | 
O=C(Nc1cncc(F)c1)N1c2nc(-c3cccc(N4CC[C@H](F)C4)c3)ccc2N2CC[C@H]1C2 [Example 283] | A (EC1.5<1 μM) | ≥ 150% |  | 
COc1cc(NC(=O)N2c3nc(-c4cccc(C#N)c4)ccc3N3CCC[C@@H]2C3)ncn1 [Example 209] |  |  | < 150% | Tryp AVG EC1.5 (μM) (SIRT1; [2]): C (EC1.5>25 μM)
O=C(Nc1cncc(F)c1)N1c2nc(-c3cccnc3)ccc2N2CCC[C@H]1C2 [Example 453] | B (EC1.5 1-25 μM) | ≥ 150% |  | 
O=C(Nc1ccncn1)N1c2nc(-c3cccc(OC(F)(F)F)c3)ccc2N2CC[C@H]1C2 [Example 166] |  |  | ≥ 150% | Tryp AVG EC1.5 (μM) (SIRT1; [2]): A (EC1.5<1 μM)
Cc1cnc(NC(=O)N2c3nc(N4CCCC(C(F)(F)F)C4)ccc3N3CCC[C@H]2C3)s1 (some centres unmarked) [Example 296] | B (EC1.5 1-25 μM) | ≥ 150% |  | 
O=C(Nc1ncccn1)N1c2nc(N3CCCC(C(F)(F)F)C3)ccc2N2CCC[C@H]1C2 (some centres unmarked) [Example 292] | A (EC1.5<1 μM) | ≥ 150% |  | 
Cc1nc(-c2cccc(NC(=O)N3c4nc(-c5cccc(C(F)(F)F)c5)ccc4N4CC[C@H]3C4)c2)cs1 [Example 583] | A (EC1.5<1 μM) | ≥ 150% |  | 
CS(=O)(=O)c1cccc(-c2ccc3c(n2)N(C(=O)Nc2cccc(-c4cnco4)n2)[C@H]2CCN3C2)c1 [Example 715] |  |  | ≥ 150% | Tryp AVG EC1.5 (μM) (SIRT1; Trp mass spectrometry assay, EC1.5 = concentration giving 150% activation of SIRT1): B (EC1.5 1-25 μM)
N#Cc1cccc(-c2ccc3c(n2)N(C(=O)Nc2cncc(F)c2)[C@@H]2CCCN3C2)c1 [Example 228] | B (EC1.5 1-25 μM) | ≥ 150% |  | 
O=C(Nc1ccncc1F)N1c2nc(-c3cccc(N4CCCC4)c3)ccc2N2CC[C@H]1C2 [Example 150] |  |  | ≥ 150% | Tryp AVG EC1.5 (μM) (SIRT1; [2]): A (EC1.5<1 μM)
COc1nccc(NC(=O)N2c3nc(-c4cccc(N5CCCC5)c4)ccc3N3CC[C@H]2C3)n1 [Example 188] |  |  | ≥ 150% | Tryp AVG EC1.5 (μM) (SIRT1; [2]): B (EC1.5 1-25 μM)
O=C(O)c1cc(NC(=S)NCc2ccc(NC(=O)N3c4nc(-c5cccc(C(F)(F)F)c5)ccc4N4CCC[C@H]3C4)cc2)ccc1-c1c2ccc(=O)cc-2oc2cc(O)ccc12 [Example 563] | A (EC1.5<1 μM) | ≥ 150% |  | 
CN(C)c1cccc(-c2ccc3c(n2)N(C(=O)Nc2cnccn2)[C@@H]2CCCN3C2)c1 [Example 266] | B (EC1.5 1-25 μM) | ≥ 150% |  | 
